Results: paper PMC9917735, “Optimization of the Hemolysis Assay for the Assessment of Cytotoxicity” (International Journal of Molecular Sciences, 2023)
Values after ≈ are worked out from the molar mass of the structure shown. Read-outs that look alike come from different tables or passages of the source.

Legend:
[1] = system: human whole blood; details: for Calculated hemolysis ratio: human whole blood, peptides 100 μM, 60 min 37 °C, neg. PBS, 3 x 2 replicates
[2] = system: washed human erythrocytes; assay: Hemolysis assay, washed human erythrocytes
[3] = system: rabbit whole blood; details: for Hemolysis ratio: rabbit whole blood, AMPs 100 μM, 1 hour 37 °C, 3 x 2 replicates
Description: (§1) Cytotoxicity studies are important during characterization of novel compounds or materials intended for interactions within human biological systems in vivo. Evaluation of the extent to which the compound induces disruption of the membrane of erythrocytes (red blood cells), thereby causing release of cellular content, often constitutes an initial step in such cytotoxicity assessments. The assay used in this context is generally referred to as the hemolysis assay, which has the advantages of being cheap, accessible, and simple to perform. Blood is drawn from a human or an animal, and next, the washed erythrocytes are incubated together with the compound or material under investigation. If the compound causes hemolysis, hemoglobin (along with other cellular constituents) will be released into the supernatant.
(§2) Blood from mice, rats, and rabbits was provided by the Department of Comparative Medicine at Oslo University Hospital (Marianne Aannestad). For mice and rats, the blood was collected from the heart by using 25 G and 21 G needles, respectively, whereas for rabbits, the blood was collected by free bleed through the ear using a yellow neoflon (24 G). All animals were wild type and anesthetized prior to the procedure.
(§3) All blood was collected in Lithium Heparin tubes 4 mL (Greiner Bio-One, Kremsmünster, Austria) or Coagulation sodium citrate 3.2% tubes 3 mL (Greiner Bio-One).
(§4) AMP 2 contained an N-terminal hexanoic acid moiety, whereas all peptides contained amidated C-termini. These three peptides were synthesized by Genscript Inc. (Piscataway, NJ, USA), and stock solutions of 1 mg/mL were made from the purchased powders. […] All peptides were diluted to yield a 100 μM final concentration in the hemolysis assays.
(§5) Triton X-100 (T8787) and Tween-20 (P2287) detergents were purchased from Sigma Aldrich and diluted to obtain 10% stock solutions by weighing (w/v). A sodium Dodecyl Sulfate (SDS) 10% solution was purchased from Invitrogen (Waltham, MA, USA, 15553027). All subsequent dilutions annotated in figures were made from these stocks.
(§6) As soon as possible after phlebotomy, the blood samples were centrifuged at 1700× g for 5 min. The supernatant was removed by aspiration and 2 mL of PBS pH 7 was added. The washing step was repeated three times or until the supernatant was clear. After final aspiration, the remaining pellet was diluted 1:100 in PBS pH 7 to obtain a 1% erythrocyte suspension (or 1:100, 1:50, and 1:20 for assays testing the effect of erythrocyte concentration). For experiments using whole blood, the washing steps were not performed, but downstream experimentation was identical. For experiments performed with 96-well plates, 50 μL of test compound, water, or detergent were mixed with 50 μL of blood sample (1% erythrocyte suspension or whole blood). For experiments using larger volumes, 250 μL of test compound, water, or detergent were mixed with 250 μL blood sample in an Eppendorf tube. Samples were subsequently incubated at 37 °C for 60 min (or 15, 30, 60, 90, or 120 min for assays evaluating the effect of incubation time). After incubation, the plates/tubes were centrifuged at 1700× g for 5 min, and then 50 μL of the supernatants were transferred to transparent, flat-bottom 96-well plates (Anicrin, A013418). Finally, absorption was measured at 405, 530, and 570 nm in a Victor Nivo Multimode microplate reader (Perkin Elmer, Waltham, MA, USA).

[4] = system: rat erythrocytes; details: AMPs 100 μM, 1 hour 37 °C, pos. 10% Triton X-100, neg. PBS, 3 x 2 replicates
Description: as §1, §2, §3, §4, §5, §6

[5] = system: rabbit erythrocytes; details: AMPs 100 μM, 1 hour 37 °C, pos. 10% Triton X-100, neg. PBS, 3 x 2 replicates
Description: as §1, §2, §3, §4, §5, §6

[6] = system: mouse erythrocytes; details: AMPs 100 μM, 1 hour 37 °C, pos. 10% Triton X-100, neg. PBS, 3 x 2 replicates
Description: as §1, §2, §3, §4, §5, §6

[7] = system: E. coli; details: E. coli
[8] = system: washed human erythrocytes; assay: Flow cytometry of treated erythrocytes with live/dead amine-reactive stain; type: cell-based; details: washed human erythrocytes treated 60 minutes, AMPs 100 μM, amine-reactive dye 488, flow cytometry 533/30 nm
Protocol: Briefly, a 1% washed erythrocyte solution was diluted to ~10^5 cells/mL and 0.4% Trypan blue (1:1 ratio) was added before 10 μL of the stained cell suspension was added to the Countess cell counting chamber slide. After a 30 s incubation, the slide was inserted into the instrument for automatic cell counting.
The Countess II automated cell counter (see above) was used to adjust the negative control sample to ~10^5 cells/mL and to subsequently dilute all samples by the same factor. Then, 0.5 μL of live/dead amine-reactive dye 488 (Fisher Scientific, Waltham, MA, USA) was added to 0.5 mL cell suspension and incubated for 30 min protected from light. Subsequently, the samples were washed twice with PBS pH 7 containing 1% bovine serum albumin (BSA), and finally resuspended in PBS pH 7 with 1% BSA. Cells were next counted, and the fluorescence measured using the 533/30 nm filter in an Accuri C6 flow cytometer (BD Biosciences, Franklin Lakes, NJ, USA).

CC[C@H](C)[C@H](NC(=O)[C@H](CC(C)C)NC(=O)[C@H](CCC(N)=O)NC(=O)[C@H](CC(C)C)NC(=O)[C@@H](NC(=O)[C@H](C)NC(=O)[C@H](CCCCN)NC(=O)[C@H](CCCCN)NC(=O)[C@H](CCCCN)NC(=O)[C@H](CCCCN)NC(=O)[C@H](CCCCN)NC(=O)[C@@H](NC(=O)[C@H](CCCNC(=N)N)NC(=O)[C@H](CCCCN)NC(=O)[C@@H](NC(=O)[C@H](CC(C)C)NC(=O)[C@H](Cc1ccc(O)cc1)NC(=O)[C@H](CCCNC(=N)N)NC(=O)CNC(=O)[C@H](CC(=O)O)NC(=O)[C@@H](NC(=O)[C@@H](N)CCSC)[C@@H](C)O)[C@@H](C)CC)C(C)C)C(C)C)C(=O)N[C@@H](CC(C)C)C(=O)N[C@@H](CCCCN)C(=O)N[C@@H](Cc1ccccc1)C(=O)N[C@@H](CC(C)C)C(N)=O [AMP 3]
Calculated hemolysis ratio ([1]; OD 405 nm (signal saturated), pos. 10% SDS): 15.5 ± 7.1%
Calculated hemolysis ratio ([1]; OD 530 nm, pos. 10% SDS): 2.7%
Calculated hemolysis ratio ([1]; OD 570 nm, pos. 10% Triton X-100 (table title; text says 10% SDS)): 3.8%
Fold reduction in HR in human whole blood in comparison with washed erythrocytes measured at 405 nm ([1]; whole blood HR with 10% SDS as positive control (Table 5) vs washed erythrocytes (Table 6), 100 μM): > 27 fold
Calculated hemolysis ratio ([2]; 1% washed human erythrocytes, OD 530 nm, peptides 100 μM, 60 min 37 °C, pos. 10% Triton X-100, neg. PBS, 3 x 2 replicates): 68.4 ± 15%
Calculated hemolysis ratio ([2]; 1% washed human erythrocytes, OD 570 nm, peptides 100 μM, 60 min 37 °C, pos. 10% Triton X-100, neg. PBS, 3 x 2 replicates): 65.7 ± 11.6%
Calculated Hemolysis (%) ([2]; 2% pooled human erythrocytes, AMPs 100 µM, 60 min 37 °C, 405 nm, pos. 10% Triton X-100, neg. PBS, 3 x 2 replicates): 41.1 ± 3.2%
Calculated Hemolysis (%) ([2]; 5% pooled human erythrocytes, AMPs 100 µM, 60 min 37 °C, 405 nm, pos. 10% Triton X-100, neg. PBS, 3 x 2 replicates): 45.7 ± 8.2%
Calculated hemolysis ratio ([2]; Table 1: 1% human erythrocytes, 100 µM, 60 min 37 °C, OD 405 nm, pos. 10% Triton X-100, neg. PBS, mean ± SD, 3 experimental x 2 technical replicates): 37 ± 5.1%
Calculated hemolysis ratio ([2]; Table 2: pooled blood from all 10 individuals, 1% erythrocytes, AMPs 100 µM, 60 min 37 °C, 405 nm, pos. 10% Triton X, neg. PBS, 3 x 2 replicates): 45.4 ± 4.8%
Calculated Hemolysis (%) ([2]; Table 3: 1% pooled human erythrocytes, AMPs 100 µM, 60 min 37 °C, 405 nm, pos. 10% Triton X-100, neg. PBS, 3 x 2 replicates): 45.4 ± 4.8%
Calculated hemolysis ratio ([2]; Table 4: incubation 60 min, 37 °C, 1% human erythrocytes, AMPs 100 µM, 405 nm, pos. 10% Triton X-100, neg. PBS, 3 biological x 2 technical replicates): 64.6 ± 6.8%
Calculated hemolysis ratio ([2]; Table 6: 1% washed human erythrocytes, OD 405 nm, peptides 100 μM, 60 min 37 °C, pos. 10% Triton X-100, neg. PBS, 3 x 2 replicates): 73.5 ± 14.4%
Calculated hemolysis ratio ([2]; human individual # 1, 1% erythrocytes, AMPs 100 µM, 60 min 37 °C, 405 nm, pos. 10% Triton X, neg. PBS, 3 x 2 replicates): 36.4 ± 5%
Calculated hemolysis ratio ([2]; human individual # 2, 1% erythrocytes, AMPs 100 µM, 60 min 37 °C, 405 nm, pos. 10% Triton X, neg. PBS, 3 x 2 replicates): 39.3 ± 6%
Calculated hemolysis ratio ([2]; human individual # 3, 1% erythrocytes, AMPs 100 µM, 60 min 37 °C, 405 nm, pos. 10% Triton X, neg. PBS, 3 x 2 replicates): 49.4 ± 8.5%
Calculated hemolysis ratio ([2]; human individual # 4, 1% erythrocytes, AMPs 100 µM, 60 min 37 °C, 405 nm, pos. 10% Triton X, neg. PBS, 3 x 2 replicates): 43.6 ± 4.2%
Calculated hemolysis ratio ([2]; human individual # 5, 1% erythrocytes, AMPs 100 µM, 60 min 37 °C, 405 nm, pos. 10% Triton X, neg. PBS, 3 x 2 replicates): 38.3 ± 7.3%
Calculated hemolysis ratio ([2]; human individual # 6, 1% erythrocytes, AMPs 100 µM, 60 min 37 °C, 405 nm, pos. 10% Triton X, neg. PBS, 3 x 2 replicates): 45.7 ± 6.4%
Calculated hemolysis ratio ([2]; human individual # 7, 1% erythrocytes, AMPs 100 µM, 60 min 37 °C, 405 nm, pos. 10% Triton X, neg. PBS, 3 x 2 replicates): 37.7 ± 6.9%
Calculated hemolysis ratio ([2]; human individual # 8, 1% erythrocytes, AMPs 100 µM, 60 min 37 °C, 405 nm, pos. 10% Triton X, neg. PBS, 3 x 2 replicates): 45.6 ± 9.2%
Calculated hemolysis ratio ([2]; human individual # 9, 1% erythrocytes, AMPs 100 µM, 60 min 37 °C, 405 nm, pos. 10% Triton X, neg. PBS, 3 x 2 replicates): 42.1 ± 4.7%
Calculated hemolysis ratio ([2]; human individual # 10, 1% erythrocytes, AMPs 100 µM, 60 min 37 °C, 405 nm, pos. 10% Triton X, neg. PBS, 3 x 2 replicates): 50.3 ± 4.6%
Calculated hemolysis ratio ([2]; incubated in polypropylene tubes, 1% washed human erythrocytes, peptides 100 μM, 60 min 37 °C, 405 nm, pos. 10% Triton X-100, neg. PBS, 3 x 2 replicates): 57.5 ± 13.2%
Calculated hemolysis ratio ([2]; incubated in polystyrene tubes, 1% washed human erythrocytes, peptides 100 μM, 60 min 37 °C, 405 nm, pos. 10% Triton X-100, neg. PBS, 3 x 2 replicates): 66.7 ± 12.7%
Calculated hemolysis ratio ([2]; incubation 15 min, 37 °C, 1% human erythrocytes, AMPs 100 µM, 405 nm, pos. 10% Triton X-100, neg. PBS, 3 biological x 2 technical replicates): 54.8 ± 8.2%
Calculated hemolysis ratio ([2]; incubation 30 min, 37 °C, 1% human erythrocytes, AMPs 100 µM, 405 nm, pos. 10% Triton X-100, neg. PBS, 3 biological x 2 technical replicates): 56.6 ± 7.4%
Calculated hemolysis ratio ([2]; incubation 90 min, 37 °C, 1% human erythrocytes, AMPs 100 µM, 405 nm, pos. 10% Triton X-100, neg. PBS, 3 biological x 2 technical replicates): 63 ± 4.5%
Calculated hemolysis ratio ([2]; incubation 120 min, 37 °C, 1% human erythrocytes, AMPs 100 µM, 405 nm, pos. 10% Triton X-100, neg. PBS, 3 biological x 2 technical replicates): 74.3 ± 21.1%
Observed hemolytic properties (qualitative) ([2]; reason for choice of the AMPs): high
Calculated hemolysis ratio ([2]; total incubation volume 100 μL, 1% washed human erythrocytes, peptides 100 μM, 60 min 37 °C, 405 nm, pos. 10% Triton X-100, neg. PBS, 3 x 2 replicates): 66.7 ± 12.7%
Calculated hemolysis ratio ([2]; total incubation volume 500 μL, 1% washed human erythrocytes, peptides 100 μM, 60 min 37 °C, 405 nm, pos. 10% Triton X-100, neg. PBS, 3 x 2 replicates): 72.7 ± 10.4%
Fold decrease of hemolytic effect in rabbit whole blood vs washed rabbit erythrocytes ([3]; cf. Tables S3 and S4, 100 μM): 4 fold
Hemolysis ratio ([3]; OD 530 nm, pos. 10% SDS, neg. PBS): 13.2 +/- 3%
Hemolysis ratio ([3]; OD 570 nm, pos. 10% Triton X-100, neg. PBS): 13.1 +/- 3.2%
Hemolysis ratio ([4]; Table S4: washed rat erythrocytes, OD 405 nm): 29.5 +/- 8.2%
Hemolysis ratio ([4]; washed rat erythrocytes, OD 530 nm): 30.7 +/- 13.1%
Hemolysis ratio ([4]; washed rat erythrocytes, OD 570 nm): 31.1 +/- 12.7%
Hemolysis ratio ([5]; Table S4: washed rabbit erythrocytes, OD 405 nm): 53.2 +/- 7.4%
Hemolysis ratio ([5]; washed rabbit erythrocytes, OD 530 nm): 50.1 +/- 7.7%
Hemolysis ratio ([5]; washed rabbit erythrocytes, OD 570 nm): 52.7 +/- 8.2%
Hemolysis ratio ([6]; Table S4: washed mouse erythrocytes, OD 405 nm): 77.1 +/- 3.8%
Hemolysis ratio ([6]; washed mouse erythrocytes, OD 530 nm): 71.1 +/- 3.2%
Hemolysis ratio ([6]; washed mouse erythrocytes, OD 570 nm): 47.7 +/- 2.5%
Minimum inhibitory concentration (E. coli) [7]: 4 µM (≈ 12.5 µg/mL)
Fluorescence intensity per cell of remaining intact cells (live/dead stain) [8]: surprisingly high fluorescence intensity measurements per cell
